Consider 5 compounds from patent US7214495B2, “Screening method” (Takeda Pharmaceutical Company Limited, priority 2002, dated 2007).

The test system of assay [1] is mouse pancreatic β cell line MIN6. Nature of the assay: Insulin secretion from MIN6 in KRBH buffer (immunoassay). The class given is cell-based. The note with it: for insulin secretion enhancing activity: 22 mM glucose KRBH, 90 minutes; for insulin secretion activity in BSA-containing buffer / insulin secretion enhancing activity in buffer containing Nifedipine / insulin secretion enhancing activity in PD98059-containing buffer / insulin secretion enhancing activity, glucose dependency: 10 μM fatty acid; for insulin secretion activity in BSA-containing buffer: 0.1% fatty acid-free BSA; for insulin secretion enhancing activity in buffer containing Nifedipine: Nifedipine 10 μM; for insulin secretion enhancing activity in PD98059-containing buffer: PD98059 50 μM; for insulin secretion enhancing activity, glucose dependency: high glucose level conditions of at least 11 mM (0, 5.5, 11, 22 mM tested); for insulin secretion enhancing activity in buffer without Ca^2+ ions: 10 μM, no Ca^2+ ions, 0.1 mM EGTA, 22 mM glucose; for insulin secretion enhancing activity in m40i103-introduced MIN6: GPR40-specific siRNA m40i103 introduced; for insulin secretion enhancing activity in MIN6 introduced with Scramble II duplex siRNA: random siRNA control. The protocol:
The mouse pancreatic β cell line MIN6 incubated in a flask was scraped in PBS containing 2.5 mM EDTA and plated in a 96-well plate followed by incubation for 2 days. The medium used was the same as in EXAMPLE 24, namely, 4.5 g/l of glucose-containing Dulbecco's Modified Eagle Medium (DMEM, Invitrogen, Inc.) supplemented with 15% fetal calf serum (ThermoTrace, Inc.), 5.5 μM 2-mercaptethanol (Invitrogen, Inc.), 20 mM HEPES pH 7.3, 100 U/ml penicillin and 100 μg/ml streptomycin. The cells were washed twice with modified Krebs-Ringer bicarbonate buffer (KRBH, 116 mM NaCl, 4.7 mM KCl, 1.2 mM KH2PO4, 1.2 mM MgSO4, 2.5 mM CaCl2, 25 mM NaHCO3, 24 mM HEPES, pH 7.3), followed by preincubation at 37° C. in 5% CO2 for 30 minutes. The fatty acid diluted/prepared using the aforesaid KRBH buffer added with 22 mM glucose was added to the cells after the preincubation, followed by incubation under the conditions of 37° C. in 5% CO2 for 90 minutes. After the incubation, the supernatant of the cells was recovered and stored in a frozen state. The insulin content in the supernatant was assayed using an insulin immunoassay kit commercially available (Amersham Pharmacia, Inc.).
Based on the method of EXAMPLE 25, effects of glucose level when added with fatty acids were examined. The level of glucose, which was added to KRBH upon the addition of fatty acids, was varied to 0, 5.5, 11 and 22 mM to study the effects.
The insulin secretion enhancing activity in the m40i103-introduced MIN6 cells using HVJ Envelope VECTOR KIT GenomONE based on the method of EXAMPLE 18 was examined. The insulin secretion enhancing activity by fatty acids was examined according to the method of EXAMPLE 25.
Based on the procedures of EXAMPLE 25, an essential prerequisite of Ca^2+ ions in the extracellular fluid was examined. In preincubation and incubation with a sample, Ca^2+ ions were removed and 0.1 mM EGTA, which was a reagent for chelating Ca^2+ ions, was further added, and then the insulin secretion enhancing activity by fatty acids was examined in this case.
Based on the method of EXAMPLE 25, effects of Ca^2+ channel blocker (Nifedipine) and MAP kinase inhibitor (PD98059) were examined. In preincubation and incubation with a sample, the insulin secretion enhancing activity by fatty acids was examined when Nifedipine (10 μM) or PD98059 (50 μM) was added.
It is known that fatty acids have the property of binding to albumin. Based on the method of EXAMPLE 25, effects were examined when bovine serum albumin (BSA) was present. In preincubation and incubation with a sample, the insulin secretion activity by fatty acids was examined when 0.1% BSA was added to the buffer.

A further assay has as its target T1, human GPR40 (Homo sapiens, UniProt O14842).
T1 construct: The resulting fragment (ca. 1 kb) was introduced into vector pAKKO-111, which was used for transfection of CHO cells; expressed in transfected cells
Nature of the assay: EC50 by FLIPR calcium assay in CHO cells stably expressing human GPR40. Type of assay: cell-based. To be noted: intracellular calcium, FLIPR, stable CHO line; read-out: EC50 Human GPR40.

T1 sequence (O14842 whole entry, the tested form may be a part): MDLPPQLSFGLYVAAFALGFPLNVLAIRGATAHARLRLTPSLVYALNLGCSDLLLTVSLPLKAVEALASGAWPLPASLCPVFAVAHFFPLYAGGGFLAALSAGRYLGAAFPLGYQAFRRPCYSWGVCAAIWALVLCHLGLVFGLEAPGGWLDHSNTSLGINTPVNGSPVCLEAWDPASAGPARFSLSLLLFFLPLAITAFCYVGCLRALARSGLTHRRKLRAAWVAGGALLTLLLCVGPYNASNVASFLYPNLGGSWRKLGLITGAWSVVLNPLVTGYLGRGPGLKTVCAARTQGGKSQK

For `CCCCC/C=C\C/C=C\C/C=C\C/C=C\CCCC(=O)O` [Arachidonic acid (C20:4), Arachidonic acid], the “insulin secretion enhancing activity” value in assay [1] is reported as “significantly noted”. Moreover, on human GPR40, the EC50 was 2.4 ± 0.6 µM.

Regarding `CC/C=C\C/C=C\C/C=C\C/C=C\C/C=C\C/C=C\CCC(=O)O` [Docosahexaenoic acid (C22:6), 4Z,7Z,10Z,13Z,16Z,19Z-docosahexaenoic acid], the “insulin secretion enhancing activity” value in assay [1] was “significantly noted”. The 50% effective concentration (EC50) at human GPR40 came to 1.1 ± 0.3 µM.

With `CCCCC/C=C\C/C=C\CCCCCCCC(=O)O` [Linoleic acid (C18:2), Linoleic acid], in assay [1], the “insulin secretion activity in BSA-containing buffer” value is “almost suppressed”; the “insulin secretion enhancing activity in buffer containing Nifedipine” value was “not appreciated”; the “insulin secretion enhancing activity in PD98059-containing buffer” value was “same results as in ordinary buffer”; the “insulin secretion enhancing activity, glucose dependency” value is listed as “remarkable”. Besides, in assay [1], the “insulin secretion enhancing activity in buffer without Ca^2+ ions” value is reported as “not observed”, the “insulin secretion enhancing activity” value is given as “significantly noted”, the “insulin secretion enhancing activity in m40i103-introduced MIN6” value was “no longer noted” and the “insulin secretion enhancing activity in MIN6 introduced with Scramble II duplex siRNA” value was “retained”. In addition, on human GPR40, the EC50 was found to be 1.8 ± 0.1 µM.

For `CCCCCCCC/C=C\CCCCCCCC(=O)O` [Oleic acid (C18:1), Oleic acid], in assay [1], the “insulin secretion activity in BSA-containing buffer” value is “almost suppressed”; the “insulin secretion enhancing activity in buffer containing Nifedipine” value is given as “not appreciated”; the “insulin secretion enhancing activity in PD98059-containing buffer” value is “same results as in ordinary buffer”; the “insulin secretion enhancing activity, glucose dependency” value is “remarkable”. In addition, in assay [1], the “insulin secretion enhancing activity in buffer without Ca^2+ ions” value is “not observed” and the “insulin secretion enhancing activity” value is “significantly noted”. The 50% effective concentration (EC50) on human GPR40 is 2 ± 0.3 µM.

Consider `CCCCC/C=C\C/C=C\C/C=C\CCCCC(=O)O` [γ-Linolenic acid (C18:3), γ-Linolenic acid], for which, in assay [1], the “insulin secretion enhancing activity in buffer without Ca^2+ ions” value was “not observed”, the “insulin secretion enhancing activity” value is “significantly noted”, the “insulin secretion enhancing activity in m40i103-introduced MIN6” value is recorded as “no longer noted” and the “insulin secretion enhancing activity in MIN6 introduced with Scramble II duplex siRNA” value is “retained”. Further, on human GPR40, the half-maximal effective concentration (EC50) stood at 4.6 ± 1.6 µM.
